Laboratory results as given in US20120232251A1, “GLUCOSE SENSOR” (King's College London, priority 2009, published 2012).
Read-outs that look alike come from different tables or passages of the source. One block for each substance: values may come before it.

Legend:
[1] = cited from earlier work
[2] = cited from earlier work; for Kd: monitored by the autofluorescence of GBP [32], read-out: Kd for glucose; for fluorescence change: autofluorescence of the protein
[3] = Steady-state fluorescence intensity response of badan-labelled GBP mutants to glucose in PBS; format: binding; conditions: for Δ Fluorescence (%) (maximal change in fluorescence intensity with addition of glucose) / Kd: badan-labelled GBP mutant; for Δ Fluorescence (%) (maximal change in fluorescence intensity with addition of glucose): PBS, saturating glucose; for Kd: in PBS, read-out: Kd (mM) binding constant for glucose; for change in fluorescence intensity on glucose addition (in words): increasing glucose, up to 1M
Method: (§1) To label GBP mutants with badan, 50 μM protein was dissolved in 5 mM Tris(2-carboxyethyl)phosphine in phosphate-buffered saline (PBS) pH 7.4, and then a 10-fold excess of dye (500 μM) was added and the mixture incubated overnight at 4° C., after which it was purified on a Sephadex G-25 gel-filtration column.
(§2) Steady-state fluorescence intensity was recorded on a Perkin-Elmer LS50B fluorimeter (Perkin Elmer Instruments, Beaconsfield, UK). The excitation and emission wavelengths of badan were 400 and 550 nm respectively. All data were obtained at room temperature using quartz cuvettes with sample volume of 100 μL. The labelled protein was incubated with increasing amounts of D-glucose for 15-20 min at room temperature before fluorescence was recorded.
(§3) The binding constant, Kd, was calculated from the sigmoidal dose-response curves using Prism 5 software (GraphPad, San Diego, Calif., USA). Lifetime values were obtained from fluorescence transients using the TR12 analysis package (courtesy of Dr. Paul Barber, Gray Cancer Institute of Radiation Oncology and Biology, Oxford University, Oxford, UK). Global analysis was applied to the entire data set of twelve transients as described for the H152C mutant previously.

[4] = Steady-state fluorescence intensity response of badan-labelled GBP mutant to glucose in serum; format: binding
Method: as §1
Venous blood samples from healthy volunteers were collected in Vacuette tubes. The specimens were incubated at room temperature for 4 days to allow blood clotting and glycolysis. The samples were then centrifuged at 3500 g for 20 min and serum removed, pooled and stored until use. The glucose concentrations of serum samples were determined using a hexokinase-based assay (Sigma).
as §2, with “All data were obtained at room temperature using quartz cuvettes with sample volume of 100 μL.” left out
as §3, with “Global analysis was applied to the entire data set of twelve transients as described for the H152C mutant previously.” left out

[5] = prior-art reports, read-out: Kd / binding constant for glucose

Substance: A213R: GBP having a single mutation of A213R (Amiss et al)
- Kd ([1]; Amiss et al 2007, read-out: glucose affinity): ~1000 µM

Substance: GBP: unmutated glucose/galactose binding protein of E. coli
- Kd [2]: 0.2 µM

- Kd [3]: 0.6 mM
Substance: H152C/A213R: GBP double mutant labelled at 152C with badan
- Δ Fluorescence (%) (maximal change in fluorescence intensity with addition of glucose) [3]: ~500%

- Kd [3]: 0.6 mM
Substance: H152C/L238S: GBP double mutant labelled at 152C with badan
- Δ Fluorescence (%) (maximal change in fluorescence intensity with addition of glucose) [3]: 200%

Substance: E149C/A213C/L238S(GGBP): GGBP triple mutant attached to Nile red (Thomas et al 2006)
- change (maximal increase) in fluorescence intensity on addition of glucose ([1]; prior-art reports): 50%
- change (maximal increase) in fluorescence intensity on addition of glucose ([1]; prior-art reports, listed as GBP attached to Nile red): about 50%
- Kd [1, 5]: 7000 µM

Substance: L238S: GBP mutant L238S previously reported
- weakening of the binding of glucose to GBP ([1]; previously reported [31]): ten-fold

Substance: Q26C: GGBP with Gln at position 26 mutated to Cys (Tolosa et al)
- Kd / binding constant for glucose (in words) ([1]; prior-art reports): micromolar range

Substance: E149C A213R L238S: GBP triple mutant coupled to the IANBD fluorophore (Amiss et al)
- change in fluorescence intensity upon glucose binding (in words) ([1]; coupled to the IANBD fluorophore, Amiss et al): fifty percent

Substance: H152C/A213R/L238S: E. coli glucose/galactose binding protein triple mutant labelled at cysteine 152 with badan
- Δ Fluorescence (%) (maximal change in fluorescence intensity with addition of glucose) [3]: 200%
- Kd [3]: 11 mM
- Δ Fluorescence (%) (maximal change in fluorescence intensity with addition of glucose) [4]: 180%
- Kd ([4]; read-out: Kd (mM) binding constant for glucose): 14 mM

Substance: F16A: GBP mutant F16A, monitored by autofluorescence (Sakaguchi-Mikami et al)
- fluorescence change [2]: about 10%
- Kd [2]: 200 µM

Substance: D14E/F16A: GBP two-mutant D14E/F16A, monitored by autofluorescence (Sakaguchi-Mikami et al)
- fluorescence change [2]: about 10%
- Kd [2]: 3900 µM

Substance: L255C: GGBP mutant L255C (Ge et al)
- Kd / binding constant for glucose (in words) ([1]; prior-art reports): micromolar range

- binding of glucose (in words) ([3]; badan-labelled): abolished the binding of glucose
Substance: H152C/F16A: GBP double mutant labelled at 152C with badan
- Δ Fluorescence (%) (maximal change in fluorescence intensity with addition of glucose) [3]: 0%
- change in fluorescence intensity on glucose addition (in words) ([3]; badan-labelled, listed as F16A mutation with H152C): no change of fluorescence intensity
- change in fluorescence intensity on glucose addition (in words) ([3]; badan-labelled, listed as F16A/H152C-badan): no change in fluorescence

Substance: E149C/A213S/L238S: GGBP triple mutant reported by Hsieh et al
- Kd [1, 5]: 500 µM
